Experimental data from patent publication US20260021193A1, “IMMUNOCONJUGATES AND METHODS” (Immunome, Inc., priority 2022, published 2026).
Where two headings read alike, the source gives them in different places.

Tests used:
[1] = Human hepatocyte clearance (HHEP CL); type: in vitro ADME; parameters: CLint scaled / half-life: dose or concentration left out as unconfirmed; details: both sexes
Method: Suspensions of human hepatocytes (from 10 mixed gender human donors, final concentration 0.5×10^6 cell/mL) in Williams' E medium were incubated for 90 min with a test compound (0.90% acetonitrile and 0.10% DMSO, final concentration […]) and positive controls (7-Ethoxycoumarin, 7-Hydroxycoumarin, 0.90% acetonitrile and 0.10% DMSO, final concentration […]), with constant shaking at about 600 rpm at 37° C. in an incubator at 5% CO2 and 95% humidity. The total volume of incubation was 200 μl. A sample ([…]) was taken out at T0, 15, 30, 60 and 90 min, which was added intermediately to the ice-cold stop solution (acetonitrile with 200 ng/mL of to butamide and labetalol as internal standard) (125 μl), and vortexed at 500 rpm for 10 min, centrifuged at 3220×g for 20 min at 4° C. Analytical plates were sealed and stored at 4° C. until LCMS analysis. Viability of hepatocytes at pre-incubation was determined to be 84.5%.
(§1) Human liver microsome clearance assay assess metabolism by the cytochrome P450 system (phase I enzymes). These enzymes oxidize substrates by incorporating oxygen atoms into hydrocarbons, thus causing the introduction of hydroxyl groups, or N- O- and S-dealkylation of substrates and forming more polar products easier to be cleared. Human hepatocyte clearance assay measures more broadly the overall cellular metabolism of the test compound (phase I and phase II enzyme pathways). Phase II enzymes catalyze the conjugation reaction of xenobiotic metabolites and charged species, such as glutathione, sulfate, glycine, or glucuronic acid to form even more polar compounds for easier clearance.

[2] = PAMPA (Parallel Artificial Membrane Permeability Assay); type: physicochemical; parameters: dose or concentration left out as unconfirmed
Source text: PAMPA is a method which determines the permeability of substances from a donor compartment, through a lipid-infused artificial membrane into an acceptor compartment. See Ottaviani, G.; Martel, S.; Carrupt, P-A. “Parallel Artificial Membrane Permeability Assay: A New Membrane for the Fast Prediction of Passive Human Skin Permeability”, Journal of Medicinal Chemistry, 2006, 49 (13), 3948-3954). A multi-well microtitre plate is used for the donor and a membrane/acceptor compartment is placed on top; the whole assembly is commonly referred to as a “sandwich”. At the beginning of the test, the drug is added to the donor compartment, and the acceptor compartment is drug-free. After an incubation period which may include stirring, the sandwich is separated, and the amount of drug is measured in each compartment. Mass balance allows calculation of drug that remains in the membrane.
The PAMPA was performed by Pion Inc using the GIT-0 lipid and 5 mM donor solution in pH 5.0 and pH 7.4 PRISMA buffer (containing 0.05% DMSO). The higher PAMPA data has been associated with better bystander killing. (Ogitani Y.; Hagihara K.; Oitate, M.; Naito, H.; Agatsuma T. “Bystander killing effect of DS-8201a, a novel anti-human epidermal growth factor receptor 2 antibody-drug conjugate, in tumors with human epidermal growth factor receptor 2 heterogeneity” Cancer Science, 2016, 107 (7), 1039-1046).

[3] = Human liver microsome clearance (HLM CL); type: in vitro ADME; parameters: CLint scaled / half-life: dose or concentration left out as unconfirmed
Method: Working solution was prepared by adding 5 μL of compound and control stock solution (10 mM in dimethyl sulfoxide, DMSO) to 495 μL of acetonitrile (ACN) (intermediate solution concentration: 100 μM, 99% CAN and 1% DMSO. The appropriate concentrations of microsome working solutions were prepared in 100 mM potassium phosphate buffer. After reaction plates containing mixtures of compound and microsomes were pre-incubated at 37° C. for 10 min, […] of 2 mM of NADPH and 2 mM of MgCl2 solution was added to start the reaction. The final concentrations of incubation medium were as follows: microsome—0.5 mg protein/mL, test compound/control […], NADPH—1 mM, MgCl2—1 mM, acetonitrile 0.99%, DMSO 0.01%. Incubations were performed at 37° C. for 60 min. Samples were taken out at T0, T5, T15, T30, T45 and T60, which was added intermediately to the ice-cold stop solution (acetonitrile with 200 ng/mL of to butamide and labetalol as internal standard) (125 μl), shaken for 10 min, centrifuged at 4000 rpm for 20 min at 4° C. Analytical plates were analyzed by LCMS.
as §1

[4] = test system: MDA-MB-468; assay: CTG assay of payloads, MDA-MB-468 cells; type: cell-based, human; details: Homo sapiens, MDA-MB-468; Table 1; 72 h, CellTiter-Glo
Source text: (§2) The CTG assay is a method of determining the number of viable cells in culture based on quantitation of the ATP present, an indicator of metabolically active cells. The cell assay requires the addition of a single reagent, Cell Titer Glo, in which cells are lysed and generation of a luminescent signal is produced. The luminescent signal is proportional to the amount of ATP present. The amount of ATP is directly proportional to the number of cells present in culture. For this assay, cells were ensured to be in log-phase for either Jeko-1 or MDA-MB-468. Cells were transferred to 96 wells and treated with compounds in three-fold serial dilution starting from […] (10 points dilution), for 72 h. Cell viability was analyzed with CellTiter-Glo® Luminescent Cell Viability Assay (Promega) following manufactures' instruction. Percentage of viable cells in each compound concentration was determined by normalizing with the luminescence of vehicle control and plotted into percentage of viability versus dose response curve by nonlinear fit in GraphPad Prism software.

[5] = test system: Jeko-1; assay: CTG assay of payloads, Jeko-1 cells; type: cell-based, human; details: Homo sapiens, JeKo-1, 72 h, CellTiter-Glo
Source text: as §2

Row | Structure (SMILES) | CLint scaled ([1]; human, hepatocytes) [mL/min/kg] | half-life ([1]; human, hepatocytes) [min] | Papp ([2]; pH 5) [×10⁻⁶ cm/s] | Papp ([2]; pH 7.4) [×10⁻⁶ cm/s] | CLint scaled ([3]; human, microsomes) [mL/min/kg] | half-life ([3]; human, microsomes) [min] | IC50 [4] [nM] | IC50 ([5]; Table 1) [nM] | CLint scaled ([1]; Table 1, human hepatocytes intrinsic clearance, read-out: HHEP Cl) [mL/min/kg] | CLint scaled ([3]; microsomes, Table 1, human liver microsome clearance, read-out: HLM Cl) [mL/min/kg] | half-life ([1]; Table 1, human hepatocytes, read-out: HHEP (T1/2)) [min] | Papp ([2]; Table 1, pH 5.0, read-out: PAMPA Pe pH 5.0) [×10⁻⁶ cm/s] | Papp ([2]; Table 1, pH 7.4, read-out: PAMPA Pe pH 7.4) [×10⁻⁶ cm/s] | half-life ([3]; Table 1, human liver microsomes, read-out: HLM (T1/2)) [min] | IC50 ([5]; Table 2) [nM]
1 | CC[C@@]1(O)C(=O)OCc2c1cc1n(c2=O)Cc2c-1nc1cc(F)c(C)c3c1c2[C@H](CO)CC3 (single isomer, unassigned) [Compound 1-16] | 33 | 117 | 40.4 | 8.5 | 44 | 28 | 7.2 | 0.79 | – | – | – | – | – | – | –
2 | CC[C@@]1(O)C(=O)OCc2c1cc1n(c2=O)Cc2c-1nc1cc(F)c(C)c3c1c2[C@@H](CO)CC3 (single isomer, unassigned) [Compound 1-17] | 17.9 | 215 | 74.7 | 7.8 | 53.2 | 23.5 | 7.7 | 1 | – | – | – | – | – | – | –
3 | CC[C@@]1(O)C(=O)OCc2c1cc1n(c2=O)Cc2c-1nc1cc(F)c(C)c3c1c2[C@@](C)(N(C)CCO)CC3.Cl (single isomer, unassigned) [Compound 6-44, hydrochloride] | – | – | – | – | – | – | 198 | 24.1 | 48.3 | 51.7 | – | – | – | – | –
4 | CC[C@@]1(O)C(=O)OCc2c1cc1n(c2=O)Cc2c-1nc1cc(F)c(C)c3c1c2[C@@](C)(N(C)CCO)CC3.Cl (single isomer, unassigned) [Compound 6-44] | – | – | – | – | – | – | – | – | – | – | 80 | 54.9 | 8.3 | 24 | –
5 | CC[C@@]1(O)C(=O)OCc2c1cc1n(c2=O)Cc2c-1nc1cc(F)c(C)c3c1c2[C@H](CCO)CC3 (single isomer, unassigned) [Compound 12-58] | – | 68.1 | 2.9 | 3.8 | – | 20.1 | – | – | – | – | – | – | – | – | 0.24
6 | CC[C@@]1(O)C(=O)OCc2c1cc1n(c2=O)Cc2c-1nc1cc(F)c(C)c3c1c2[C@@H](CCO)CC3 (single isomer, unassigned) [Compound 12-59] | – | 64.3 | 46.9 | 33.4 | – | 20.1 | – | – | – | – | – | – | – | – | 0.32
7 | CC[C@@]1(O)C(=O)OCc2c1cc1n(c2=O)Cc2c-1nc1cc(F)c(C)c3c1c2[C@H](CCCO)CC3 (single isomer, unassigned) [Compound 13-63] | – | 141 | 34.7 | 32.9 | – | 27.1 | – | – | – | – | – | – | – | – | 0.44
8 | CC[C@@]1(O)C(=O)OCc2c1cc1n(c2=O)Cc2c-1nc1cc(F)c(C)c3c1c2[C@@H](CCCO)CC3 (single isomer, unassigned) [Compound 13-64] | – | 79.4 | 14.6 | 10.6 | – | 22 | – | – | – | – | – | – | – | – | 0.28
9 | CC[C@@]1(O)C(=O)OCc2c1cc1n(c2=O)Cc2c-1nc1cc(F)c(C)c3c1c2[C@](C)(CCO)CC3 (single isomer, unassigned) [Compound 14-70] | – | 53.6 | 44.2 | 28.5 | – | 18.4 | – | – | – | – | – | – | – | – | 0.79
